Measured values published in patent publication US20190315731A1, “6-(BUTA-1,3-DIYN-1-YL)BENZO[D]THIAZOLE DERIVATIVES” (Idorsia Pharmaceuticals Ltd., priority 2016, published 2019).
Values after ≈ are worked out from the molar mass of the structure shown.

Assays:
Type in all cases: cell-based
E. coli ATCC25922 = test: Bacterial growth minimal inhibitory concentration, E. coli ATCC25922; details: quinolone-sensitive strain, cation-adjusted Mueller-Hinton Broth, microdilution; for MIC: Escherichia coli, ATCC25922
Experimental: (§1) Minimal Inhibitory Concentrations (MICs; mg/L) were determined in cation-adjusted Mueller-Hinton Broth by a microdilution method following the description given in “Methods for Dilution Antimicrobial Susceptibility Tests for Bacteria that Grow Aerobically”, Approved standard, 7th ed., Clinical and Laboratory Standards Institute (CLSI) Document M7-A7, Wayne, Pa., USA (2006).
(§2) All Example compounds were tested against several Gram-positive and Gram-negative bacteria. […] K. pneumoniae A-651 is a multiply-resistant (in particular quinolone-resistant) strain, while E. coli ATCC25922 and P. aeruginosa ATCC27853 are quinolone-sensitive strains.

P. aeruginosa ATCC27853 = test: Bacterial growth minimal inhibitory concentration, P. aeruginosa ATCC27853; details: quinolone-sensitive strain, cation-adjusted Mueller-Hinton Broth, microdilution; for MIC: Pseudomonas aeruginosa, ATCC27853
Experimental: as §1, §2

K. pneumoniae A-651 = test: Bacterial growth minimal inhibitory concentration, K. pneumoniae A-651; details: cation-adjusted Mueller-Hinton Broth, microdilution; for MIC for K. Pneumoniae A-651: multiply-resistant (in particular quinolone-resistant) strain; for MIC: Klebsiella pneumoniae, A651, multiply-resistant (in particular quinolone-resistant) strain
Experimental: as §1, §2

wild-type E. coli A-1261 = test: Bacterial growth minimal inhibitory concentration of prodrugs, wild-type E. coli A-1261, with or without alkaline phosphatase or esterase; details: for MIC for E. coli A-1261 In the absence of alkaline phosphatase or esterase: no alkaline phosphatase or esterase
Experimental: as §1
The compounds of Examples 6 and 21 were tested against wild-type E. coli A-1261 in the absence of alkaline phosphatase or esterase, in the presence of an alkaline phosphatase and in the presence of an esterase. The corresponding antibacterial test results are given in Table 2 hereafter (MICs in mg/L).

Compound	MIC (E. coli ATCC25922)	MIC (P. aeruginosa ATCC27853)	MIC (K. pneumoniae A-651)	other results
C[C@@](CCc1nc2ccc(C#CC#CCOC(=O)N3CC(O)C3)cc2s1)(C(=O)NO)S(C)(=O)=O [Example 3, (2R)-5-(2-(4-(hydroxyamino)-3-methyl-3-(methylsulfonyl)-4-oxobutyl)benzo[d]thiazol-6-yl)penta-2,4-diyn-1-yl 3-hydroxyazetidine-1-carboxylate]	–	–	–	MIC for E. coli ATCC25922 (E. coli ATCC25922): 0.5 µg/mL; MIC for P. aeruginosa ATCC27853 (P. aeruginosa ATCC27853): 4 µg/mL; MIC for K. Pneumoniae A-651 (K. pneumoniae A-651): 1 µg/mL
CNC1(C#CC#Cc2ccc3nc(CC[C@](C)(C(=O)NO)S(C)(=O)=O)sc3c2)CC1 [Example 18, (2R)—N-hydroxy-2-methyl-4-(6-((1-(methylamino)cyclopropyl)buta-1,3-diyn-1-yl)benzo[d]thiazol-2-yl)-2-(methylsulfonyl)butanamide]	0.125 µg/mL (≈ 0.281 µM)	1 µg/mL (≈ 2.24 µM)	0.25 µg/mL (≈ 0.561 µM)	–
C[C@@H]1[C@@H](C#CC#Cc2ccc3nc(CC[C@](C)(C(=O)NO)S(C)(=O)=O)sc3c2)CN1C [Example 16, (2R)-4-(6-(((2R,3S)-1,2-dimethylazetidin-3-yl)buta-1,3-diyn-1-yl)benzo[d]thiazol-2-yl)-N-hydroxy-2-methyl-2-(methylsulfonyl)butanamide]	0.125 µg/mL (≈ 0.272 µM)	0.5 µg/mL (≈ 1.09 µM)	0.5 µg/mL (≈ 1.09 µM)	–
C[C@@](CCc1nc2ccc(C#CC#CC3CN(C4CC(O)C4)C3)cc2s1)(C(=O)NO)S(C)(=O)=O (stereo partly drawn) [Example 12, (2R)—N-hydroxy-4-(6-((1-(3-hydroxycyclobutyl)azetidin-3-yl)buta-1,3-diyn-1-yl)benzo[d]thiazol-2-yl)-2-methyl-2-(methylsulfonyl)butanamide]	0.125 µg/mL (≈ 0.249 µM)	1 µg/mL (≈ 1.99 µM)	0.25 µg/mL (≈ 0.498 µM)	–
CN1C[C@@H](C#CC#Cc2ccc3nc(CC[C@](C)(C(=O)NO)S(C)(=O)=O)sc3c2)C[C@@H]1CO [Example 20, (2R)—N-hydroxy-4-(6-(((3R,5R)-5-(hydroxymethyl)-1-methylpyrrolidin-3-yl)buta-1,3-diyn-1-yl)benzo[d]thiazol-2-yl)-2-methyl-2-(methylsulfonyl)butanamide]	0.5 µg/mL (≈ 1.02 µM)	1 µg/mL (≈ 2.04 µM)	1 µg/mL (≈ 2.04 µM)	–
C[C@@](CCc1nc2ccc(C#CC#CC3CN(CCF)C3)cc2s1)(C(=O)NO)S(C)(=O)=O [Example 13, (2R)-4-(6-((1-(2-fluoroethyl)azetidin-3-yl)buta-1,3-diyn-1-yl)benzo[d]thiazol-2-yl)-N-hydroxy-2-methyl-2-(methylsulfonyl)butanamide]	0.125 µg/mL (≈ 0.262 µM)	1 µg/mL (≈ 2.09 µM)	0.25 µg/mL (≈ 0.523 µM)	–
C[C@@](CCc1nc2ccc(C#CC#CC3CN(CCOP(=O)(O)O)C3)cc2s1)(C(=O)NO)S(C)(=O)=O [Example 6, (R)-2-(3-((2-(4-(hydroxyamino)-3-methyl-3-(methylsulfonyl)-4-oxobutyl)benzo[d]thiazol-6-yl)buta-1,3-diyn-1-yl)azetidin-1-yl)ethyl dihydrogen phosphate]	–	–	–	MIC for E. coli A-1261 In the presence of an alkaline phosphatase (2 i.U./mL) (wild-type E. coli A-1261): 0.5 µg/mL; MIC for E. coli A-1261 In the presence of an esterase (10 i.U./mL) (wild-type E. coli A-1261): >16 µg/mL; MIC for E. coli A-1261 In the absence of alkaline phosphatase or esterase (wild-type E. coli A-1261): >16 µg/mL
C[C@@](CCc1nc2ccc(C#CC#CC3CN(C4CC4)C3)cc2s1)(C(=O)NO)S(C)(=O)=O [Example 11, (2R)-4-(6-((1-cyclopropylazetidin-3-yl)buta-1,3-diyn-1-yl)benzo[d]thiazol-2-yl)-N-hydroxy-2-methyl-2-(methylsulfonyl)butanamide]	0.063 µg/mL (≈ 0.134 µM)	2 µg/mL (≈ 4.24 µM)	0.125 µg/mL (≈ 0.265 µM)	–
C[C@@](CCc1nc2ccc(C#CC#CCOC(=O)N3CCC(O)CC3)cc2s1)(C(=O)NO)S(C)(=O)=O [Example 2, (2R)-5-(2-(4-(hydroxyamino)-3-methyl-3-(methylsulfonyl)-4-oxobutyl)benzo[d]thiazol-6-yl)penta-2,4-diyn-1-yl 4-hydroxypiperidine-1-carboxylate]	–	–	–	MIC for E. coli ATCC25922 (E. coli ATCC25922): 0.25 µg/mL; MIC for P. aeruginosa ATCC27853 (P. aeruginosa ATCC27853): 1 µg/mL; MIC for K. Pneumoniae A-651 (K. pneumoniae A-651): 0.5 µg/mL
CN1C[C@@H](C#CC#Cc2ccc3nc(CC[C@](C)(C(=O)NO)S(C)(=O)=O)sc3c2)[C@@H]1CO [Example 17, (2R)—N-hydroxy-4-(6-(((2R,3R)-2-(hydroxymethyl)-1-methylazetidin-3-yl)buta-1,3-diyn-1-yl)benzo[d]thiazol-2-yl)-2-methyl-2-(methylsulfonyl)butanamide]	0.5 µg/mL (≈ 1.05 µM)	1 µg/mL (≈ 2.1 µM)	1 µg/mL (≈ 2.1 µM)	–
CN1CCC(F)(C#CC#Cc2ccc3nc(CC[C@](C)(C(=O)NO)S(C)(=O)=O)sc3c2)C1 (mixture of isomers) [Example 14, (2R)-4-(6-(((3RS)-3-fluoro-1-methylpyrrolidin-3-yl)buta-1,3-diyn-1-yl)benzo[d]thiazol-2-yl)-N-hydroxy-2-methyl-2-(methylsulfonyl)butanamide]	0.063 µg/mL	1 µg/mL	0.25 µg/mL	–
CN1CCC(F)(C#CC#Cc2ccc3nc(CC[C@](C)(C(=O)NO)S(C)(=O)=O)sc3c2)CC1 [Example 15, (2R)-4-(6-((4-fluoro-1-methylpiperidin-4-yl)buta-1,3-diyn-1-yl)benzo[d]thiazol-2-yl)-N-hydroxy-2-methyl-2-(methylsulfonyl)butanamide]	0.25 µg/mL (≈ 0.509 µM)	1 µg/mL (≈ 2.03 µM)	0.5 µg/mL (≈ 1.02 µM)	–
CN1C[C@@H](C#CC#Cc2ccc3nc(CC[C@](C)(C(=O)NO)S(C)(=O)=O)sc3c2)[C@@H]1CO [Example 19, (2R)—N-hydroxy-4-(6-(((2R,3R)-2-(hydroxymethyl)-1-methylazetidin-3-yl)buta-1,3-diyn-1-yl)benzo[d]thiazol-2-yl)-2-methyl-2-(methylsulfonyl)butanamide]	–	–	–	MIC for E. coli ATCC25922 (E. coli ATCC25922): 0.5 µg/mL; MIC for P. aeruginosa ATCC27853 (P. aeruginosa ATCC27853): 1 µg/mL; MIC for K. Pneumoniae A-651 (K. pneumoniae A-651): 2 µg/mL
C[C@@](CCc1nc2ccc(C#CC#CC3CN(CCO)C3)cc2s1)(C(=O)NO)S(C)(=O)=O [Example 5, (2R)—N-hydroxy-4-(6-((1-(2-hydroxyethyl)azetidin-3-yl)buta-1,3-diyn-1-yl)benzo[d]thiazol-2-yl)-2-methyl-2-(methylsulfonyl)butanamide]	1 µg/mL (≈ 2.1 µM)	1 µg/mL (≈ 2.1 µM)	0.5 µg/mL (≈ 1.05 µM)	–
C[C@@](CCc1nc2ccc(C#CC#CC3CN(CCCO)C3)cc2s1)(C(=O)NO)S(C)(=O)=O [Example 10, (2R)—N-hydroxy-4-(6-((1-(3-hydroxypropyl)azetidin-3-yl)buta-1,3-diyn-1-yl)benzo[d]thiazol-2-yl)-2-methyl-2-(methylsulfonyl)butanamide]	0.25 µg/mL (≈ 0.511 µM)	1 µg/mL (≈ 2.04 µM)	0.5 µg/mL (≈ 1.02 µM)	–
CN1CC(C#CC#Cc2ccc3nc(CC[C@](C)(C(=O)NO)S(C)(=O)=O)sc3c2)C1 [Example 4, (2R)—N-hydroxy-2-methyl-4-(6-((1-methylazetidin-3-yl)buta-1,3-diyn-1-yl)benzo[d]thiazol-2-yl)-2-(methylsulfonyl)butanamide]	0.25 µg/mL (≈ 0.561 µM)	1 µg/mL (≈ 2.24 µM)	0.5 µg/mL (≈ 1.12 µM)	–
(2R)-2-(3-((4-(5-((1-(3-hydroxypropyl)azetidin-3-yl)buta-1,3-diyn-1-yl)benzo[d]thiazol-2-yl)-2-methyl-2-(methylsulfonyl)butanamido)oxy)-3-oxopropyl)phenyl dihydrogen phosphate [Example 21]	–	–	–	MIC for E. coli A-1261 In the presence of an alkaline phosphatase (2 i.U./mL) (wild-type E. coli A-1261): 0.5 µg/mL; MIC for E. coli A-1261 In the presence of an esterase (10 i.U./mL) (wild-type E. coli A-1261): 8 µg/mL; MIC for E. coli A-1261 In the absence of alkaline phosphatase or esterase (wild-type E. coli A-1261): 0.5 µg/mL
CN1CC[C@H]1C#CC#Cc1ccc2nc(CC[C@](C)(C(=O)NO)S(C)(=O)=O)sc2c1 [Example 8, (2R)—N-hydroxy-2-methyl-4-(6-(((2S)-1-methylazetidin-2-yl)buta-1,3-diyn-1-yl)benzo[d]thiazol-2-yl)-2-(methylsulfonyl)butanamide]	0.25 µg/mL (≈ 0.561 µM)	2 µg/mL (≈ 4.49 µM)	1 µg/mL (≈ 2.24 µM)	–
C[C@@](CCc1nc2ccc(C#CC#CC3CN(CC4COC4)C3)cc2s1)(C(=O)NO)S(C)(=O)=O [Example 9, (2R)—N-hydroxy-2-methyl-2-(methylsulfonyl)-4-(6-((1-(oxetan-3-ylmethyl)azetidin-3-yl)buta-1,3-diyn-1-yl)benzo[d]thiazol-2-yl)butanamide]	0.125 µg/mL (≈ 0.249 µM)	1 µg/mL (≈ 1.99 µM)	0.25 µg/mL (≈ 0.498 µM)	–
C[C@@](CCc1nc2ccc(C#CC#C[C@@H]3CC[C@H]3CO)cc2s1)(C(=O)NO)S(C)(=O)=O [Example 7, (2R)—N-hydroxy-4-(6-(((1R,2R)-2-(hydroxymethyl)cyclobutyl)buta-1,3-diyn-1-yl)benzo[d]thiazol-2-yl)-2-methyl-2-(methylsulfonyl)butanamide]	0.125 µg/mL (≈ 0.271 µM)	1 µg/mL (≈ 2.17 µM)	0.25 µg/mL (≈ 0.543 µM)	–
C[C@@](CCc1nc2ccc(C#CC#CC3CN(C4COC4)C3)cc2s1)(C(=O)NO)S(C)(=O)=O [Example 1, (2R)—N-hydroxy-2-methyl-2-(methylsulfonyl)-4-(6-((1-(oxetan-3-yl)azetidin-3-yl)buta-1,3-diyn-1-yl)benzo[d]thiazol-2-yl)butanamide]	0.25 µg/mL (≈ 0.513 µM)	1 µg/mL (≈ 2.05 µM)	0.25 µg/mL (≈ 0.513 µM)	–
